Data set [1] in a line: Urinary excretion of flavanol metabolites (0-24 h) after a single serving of soluble cocoa product (HPLC-ESI-QToF-MS). In kind it is in vivo, human. The note with it: for Excreted in urine, Total: 24 h urine; for Excreted in urine, Total / Excreted in urine, 0–4 h / Excreted in urine, 4–8 h / Excreted in urine, 8–12 h / Excreted in urine, 12–24 h / Excreted in urine, Basal: mean ± SD, n = 13; for Excreted in urine, Basal: basal urine (−2–0 h, before intake). The method, boiled down:
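Fasted women drank 15 g CC or 25 g CC-PP soluble cocoa in 200 mL semi-skimmed milk, in a randomized, single-blind design with visits two weeks apart and a 3-day low-polyphenol diet beforehand. Excreted amounts were normalized to urine volume per interval, quantified against standards or precursor calibration curves.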

Data set [2] can be described thus: Plasma nutrikinetics of flavanol metabolites after a single serving of soluble cocoa product (HPLC-ESI-QToF-MS). In kind it is in vivo, human. The note with it: for AUC: human plasma 0-8 h, read-out: AUC; for AUC / Tmax / Cmax: mean ± SD, n = 13; for Tmax / Cmax: human plasma; for Tmax: read-out: Tmax. As to the method:
The study was carried out in thirteen healthy subjects (3 men and 10 women); the mens’ average age and body mass index were 26.67 ± 3.21 year and 22.47 ± 2.97 kg/m^2, respectively, and womens’ were 32.60 ± 9.85 year and 23.36 ± 3.73 kg/m^2, respectively. They were non-smoker, non-vegetarian, non-pregnant women, who were not taking any medication or nutritional supplements, and were not suffering from any chronic pathology or gastrointestinal disorder. The sample size was estimated attending to similar previous bioavailability studies. The volunteers gave their informed consent prior to participation.
The present randomized, single-blind study was carried out at the Human Nutrition Unit (HNU) of the Institute of Food Science, Technology and Nutrition (ICTAN). Volunteers attended the HNU on two days, separated by two weeks. Three days previous to each visit, participants were instructed not to consume cocoa products (chocolate, soluble cocoa, etc.), juices, tea, wine, grape must, oranges, tangerines, apples, grapes, strawberries or other berries, beets, onions, soybeans and soy derivatives. In addition, volunteers were asked to complete a 24 h food intake recall the day before they attended the HNU in order to monitor any possible food restriction incompliance.
On each intervention day, volunteers arrived at the HNU after an overnight fast. Prior to the intake of the soluble cocoa product, a nurse inserted a cannula in the cubital vein of the non-prevailing arm of the volunteers and blood samples were collected into EDTA-coated tubes at baseline (t = 0) and 0.5, 1, 2, 3, 4, 6, and 8 h after consuming the corresponding cocoa product. The soluble cocoa products, either 15 g of CC or 25 g CC-PP, were dissolved in 200 mL of semi-skimmed milk following manufacturer’s preparation instructions. Plasma was separated by centrifugation (10 min, 3000 rpm, 4 °C) and stored at −80 °C until further analysis. Urine samples were collected at different time intervals (t = −2–0, 0–4, 4–8, 8–12, and 12–24 h) in urine collection flasks that contained 0.5 g of ascorbic acid as preservative and were aliquoted and frozen at −20 °C until analysis. A polyphenol-free breakfast, lunch and afternoon snack were provided 2 h, 4 h, and 8 h after consumption of cocoa products, and water and isotonic beverages were available ad libitum.
A liquid–liquid extraction and protein precipitation with acetonitrile was used to isolate metabolites from plasma. A 1 mL defrosted plasma sample was mixed with 50 μL of ascorbic acid (0.2 g/mL). After vortexing the aqueous mixture, it was added drop wise to 750 μL of cold acetonitrile and vortexed for 2 min before centrifuging at 12,000 rpm for 10 min at 4 °C. The supernatant was separated, and the pellet was re-extracted twice more following the same procedure. Supernatants were combined and reduced to dryness under a stream of nitrogen at 30 °C. The dried samples were resuspended in 150 μL of aqueous formic acid (0.1%) containing 10% acetonitrile acidified with 0.1% formic acid and centrifuged at 4 °C for 20 min at 14,000 rpm. The final supernatant was collected, filtered (0.45 μm pore-size, cellulose-acetate membrane filters, Albet, Dassel (Germany)) and 30 μL were analyzed by high-performance liquid chromatography coupled to electrospray ionisation and quadrupole time-of-flight mass spectrometry (HPLC-ESI-QToF-MS).
Analyses were performed on an Agilent 1200 series LC system coupled to an Agilent 6530A Accurate-Mass Quadrupole Time-Of-Flight (Q-ToF) with ESI-Jet Stream Technology (Agilent Technologies). Compounds were separated on a reverse-phase Ascentis Express C18 (15 cm × 3 mm, […]) column (Sigma-Aldrich Química, Madrid) preceded by a Supelco 55215-U guard column at 30 °C. […]

For data set [3] the following is noted: cited from earlier work.
Details of data set [4]: method as in PMID 23864538. The note with it: based on recovery in the perfusion fluid, eight volunteers; cited from earlier work.
The mark [5] stands for this setting: after CC-PP (68.25 mg flavanols).
Where [6] appears, read: both sexes, oral, 19.8 mg, after CC (19.80 mg flavanols).
[7] abbreviates: both sexes, oral, after CC-PP (68.25 mg flavanols).
Where [8] appears, read: both sexes, oral, after CC (15 g in 200 mL semi-skimmed milk, 19.80 mg flavanols), read-out: Cmax.
Where [9] appears, read: both sexes, oral, after CC-PP (25 g in 200 mL semi-skimmed milk, 68.25 mg flavanols), read-out: Cmax.

Where “and” joins values, the source holds several entries; their conditions need not be identical. Equal values may be shown once. Read-outs that look alike come from different tables or passages of the source. Where only a bound is given, the exact number is not on record here.

As to `O=S(=O)(O)Oc1cc([C@H]2Oc3cc(O)cc(O)c3C[C@H]2O)ccc1O` [Epicatechin-3′-sulfate], in data set [1] (after CC (19.80 mg flavanols)), the “Excreted in urine, Total” value stood at 2.417 ± 0.439 µmol; the “Excreted in urine, 0–4 h” value was 1.323 ± 0.236 µmol; the “Excreted in urine, 4–8 h” value is given as 1.018 ± 0.178 µmol; the “Excreted in urine, 8–12 h” value is recorded as 0.076 ± 0.025 µmol. For the same molecule, in data set [1] (after CC (19.80 mg flavanols)), the “Excreted in urine, 12–24 h” value is given as “<L.Q”. In data set [1] (setting [5]), the “Excreted in urine, Total” value came to 7.357 ± 1.523 µmol; the “Excreted in urine, 0–4 h” value is 3.627 ± 0.797 µmol; the “Excreted in urine, 4–8 h” value was found to be 3.572 ± 0.662 µmol; the “Excreted in urine, 8–12 h” value stood at 0.158 ± 0.038 µmol. Also, the “Excreted in urine, 12–24 h” value in data set [1] (setting [5]) is listed as “<L.Q”. In addition, in data set [2] (setting [6]), the AUC is 0.101 ± 0.023 µM·h and the Tmax came out at 1 ± 0.1 h. Besides, in data set [2] (setting [7]), the AUC came out at 0.109 ± 0.076 µM·h and the Tmax was 1.2 ± 0.5 h. The Cmax in data set [2] (setting [8]) was determined as 26 ± 3 nM. Also, the Cmax in data set [2] (setting [9]) came out at 42 ± 4 nM.

Turning to `O=C1CCC(Cc2ccc(O)c(OC3OC(C(=O)O)C(O)C(O)C3O)c2)O1` (stereo not drawn) [HPVL-3′-glucuronide, 5-(4′-Hydroxyphenyl)-γ-valerolactone-3′-glucuronide], the “Excreted in urine, Basal” value in data set [1] (CC intervention) is “<L.Q”. Also, the “Excreted in urine, Basal” value in data set [1] (CC-PP intervention) is given as “<L.Q”. Besides, in data set [1] (after CC (19.80 mg flavanols)), the “Excreted in urine, Total” value stood at 0.600 ± 0.232 µmol; the “Excreted in urine, 0–4 h” value is on record as “<L.Q”; the “Excreted in urine, 4–8 h” value is recorded as 0.497 ± 0.204 µmol; the “Excreted in urine, 8–12 h” value came to 0.103 ± 0.028 µmol. In addition, the “Excreted in urine, 12–24 h” value in data set [1] (after CC (19.80 mg flavanols)) is “<L.Q”. For the same molecule, in data set [1] (setting [5]), the “Excreted in urine, Total” value is reported as 2.358 ± 0.766 µmol; the “Excreted in urine, 0–4 h” value was “<L.Q”; the “Excreted in urine, 4–8 h” value is 1.802 ± 0.567 µmol; the “Excreted in urine, 8–12 h” value was 0.274 ± 0.060 µmol. In addition, the “Excreted in urine, 12–24 h” value in data set [1] (setting [5]) was 0.282 ± 0.130 µmol. Further, in data set [2] (setting [6]), the AUC is 0.106 ± 0.021 µM·h and the Tmax turned out to be 5.6 ± 0.8 h. In data set [2] (setting [7]), the AUC was 1.43 ± 0.727 µM·h and the Tmax is 5 ± 1.2 h. In data set [2] (setting [8]), the Cmax was 31 ± 4 nM. In addition, the Cmax in data set [2] (setting [9]) turned out to be 357 ± 200 nM.

In the case of `O=C1CCC(Cc2cccc(OS(=O)(=O)O)c2)O1` (stereo not drawn) [PVL-3′-sulfate, 5-Phenyl-γ-valerolactone-3′-sulfate], the “Excreted in urine, Basal” value in data set [1] (CC intervention) is recorded as “<L.Q”. For the same molecule, the “Excreted in urine, Basal” value in data set [1] (CC-PP intervention) was “<L.Q”. Besides, in data set [1] (after CC (19.80 mg flavanols)), the “Excreted in urine, Total” value is reported as 1.691 ± 0.802 µmol; the “Excreted in urine, 0–4 h” value is “<L.Q”; the “Excreted in urine, 4–8 h” value is on record as 0.860 ± 0.385 µmol; the “Excreted in urine, 8–12 h” value turned out to be 0.456 ± 0.284 µmol. In data set [1] (after CC (19.80 mg flavanols)), the “Excreted in urine, 12–24 h” value stood at 0.375 ± 0.133 µmol. In data set [1] (setting [5]), the “Excreted in urine, Total” value is 7.8 µmol and 7.752 ± 2.868 µmol; the “Excreted in urine, 0–4 h” value is listed as 0.651 ± 0.389 µmol; the “Excreted in urine, 4–8 h” value is on record as 4.188 ± 1.535 µmol; the “Excreted in urine, 8–12 h” value turned out to be 1.223 ± 0.373 µmol. In addition, the “Excreted in urine, 12–24 h” value in data set [1] (setting [5]) is recorded as 1.690 ± 0.572 µmol. Moreover, the Tmax in data set [2] (setting [6]) lay within 4 to 6 h. Moreover, in data set [2] (setting [7]), the AUC was found to be 0.161 ± 0.105 µM·h and the Tmax is 5.2 ± 2.2 h. The Cmax in data set [2] (setting [9]) came to 39 ± 14 nM. Also, the Cmax entry in data set [2] (after CC (15 g in 200 mL semi-skimmed milk, 19.80 mg flavanols)) is recorded as “traces level”.

For the molecule `COc1cc([C@H]2Oc3cc(OS(=O)(=O)O)cc(O)c3C[C@H]2O)ccc1O` (single isomer, unassigned) [Epicatechin-methoxy-sulfate (isomer 2), Epicatechin-methoxy-sulfate], in data set [1] (after CC (19.80 mg flavanols)), the “Excreted in urine, Total” value was 0.428 ± 0.062 µmol; the “Excreted in urine, 0–4 h” value is reported as 0.181 ± 0.032 µmol; the “Excreted in urine, 4–8 h” value is 0.247 ± 0.030 µmol; the “Excreted in urine, 8–12 h” value was “<L.Q”. In addition, the “Excreted in urine, 12–24 h” value in data set [1] (after CC (19.80 mg flavanols)) is reported as “<L.Q”. Besides, in data set [1] (setting [5]), the “Excreted in urine, Total” value worked out at 1.200 ± 0.293 µmol; the “Excreted in urine, 0–4 h” value was found to be 0.566 ± 0.152 µmol; the “Excreted in urine, 4–8 h” value was 0.557 ± 0.120 µmol; the “Excreted in urine, 8–12 h” value came out at 0.077 ± 0.021 µmol. Besides, the “Excreted in urine, 12–24 h” value in data set [1] (setting [5]) is recorded as “<L.Q”. In data set [2] (setting [7]), the AUC came to 0.145 ± 0.107 µM·h and the Tmax is 1.3 ± 0.5 h. The Cmax in data set [2] (setting [9]) was 41 ± 4 nM.

In the case of `Oc1cc(O)c2c(c1)O[C@H](c1ccc(O)c(O)c1)[C@H](O)C2` [epicatechin], in data set [1] (any of the interventions (CC, CC-PP)), the “Detection of un-metabolized compound in urine” value was “Neither epicatechin nor PB2 dimer was detected in urine”. Also, the “Detection of un-metabolized compound in the collected biological fluids” value in data set [2] (plasma and urine, CC and CC-PP) was “Neither un-metabolized epicatechin and catechin nor procyanidins B1 and B2 were detected”. In addition, the Excretion is given as 29.8% in data set [3] (after ingestion of chocolate providing 220 mg of flavanols) and 25.3% in data set [3] (after ingestion of cocoa providing 220 mg of flavanols). The “Jejunal absorption, average” value in data set [4] is on record as ~ 46%.

The values above are taken from publication PMC6683251, “Flavanol Bioavailability in Two Cocoa Products with Different Phenolic Content. A Comparative Study in Humans” (Nutrients, 2019).
